Test results taken from patent EP0207193A2, “Synergetic combination of flupirtin and 4-acetamido-phenol” (Degussa Aktiengesellschaft, priority 1985, dated 1987).
Like-named read-outs stand apart in the source and are kept apart here.

System: Albino-Ratte
Assay: Randall-Selitto test (analgesic effect, determination of synergism)
Type: in vivo
Details: per os; for Steigerung der analgetischen Wirksamkeit um den Faktor: ED50 alone versus ED50 in the combination, rat; for ED50: Rattus norvegicus, po
Source text: Die erfindungsgemäße Komtination zeigt beispielsweise im Randall-Selitto-Test einen Synergismus der analgetischen Wirkung, die gegenüber der Analgesie des reinen Flupirtin (Das Fiupirt^in wird stets als Maleat, Gluconat oder Hydrochlorid untersucht.) und dem reinen 4-Acetamido-phenol überadditiv gesteigert ist.
Die Wirkung der erfindungsgemäßen Kombination geht beispielsweise aus folgenden Versuchen hervor: Diese Untersuchungen erfolgten im Randall-Selitto-Test an der Albino-Ratte. Hierbei wird sowohl die Flupirtin-Dosis (Hydrochlorid) konstant gehalten, als auch bei konstanter Dosis des 4-Acetamido-phenols die Flupirtin-. Dosis geändert und jeweils im ersten Fall die ED50 der analgetischen Wirkung des 4-Acetamido-phenols und im zweiten Fall die analgetische Hauptwirkung des Flupirtins in der Kombination bestimmt (Methode der Bestimmung des Synergismus nach Forth, Henschler und Rummel, Lehrbuch Pharmakologie und Toxikologie, Ausgabe 1980, Seite 65; Wissenschaftsverlag, Bibliographisches Institut Mannheim, Wien und Zürich).
So wird beispielsweise in dem vorstehend angegebenen Test die analgetisch wirksame ED50 des Flupirtins von 30,94 mg/kg per os auf 1,65 mg/kg und die analgetisch wirksame ED50 des 4-Acetamido-phenols (Paracetamol) von 71,47 mg/kg auf 0,6 mg/kg per os gesenkt. In diesem Test erfolgt also eine Steigerung der analgetischen Wirksamkeit des Flupirtins um den Faktor 18 und hinsichtlich der analgetischen Wirkung des Paracetamols um den Faktor 119.

SMILES	Steigerung der analgetischen Wirksamkeit um den Faktor	ED50 (4-Acetamido-phenol alone, read-out: analgetisch wirksame ED50 des 4-Acetamido-phenols (Paracetamol)) [mg/kg]	ED50 (4-Acetamido-phenol in combination with a constant dose of Flupirtin (hydrochloride), read-out: analgetisch wirksame ED50 des 4-Acetamido-phenols (Paracetamol)) [mg/kg]	ED50 (Flupirtin (hydrochloride) in combination with a constant dose of 4-Acetamido-phenol, read-out: analgetisch wirksame ED50 des Flupirtins) [mg/kg]	ED50 (Flupirtin alone (hydrochloride), read-out: analgetisch wirksame ED50 des Flupirtins) [mg/kg]
CC(=O)Nc1ccc(O)cc1 [4-Acetamido-phenol]	119	71.5	0.6	–	–
CCOC(=O)Nc1ccc(NCc2ccc(F)cc2)nc1N [Flupirtin, 2-Amino-3-carbethoxyamino-6-(4-fluor-be-nzylamino)-pyridin]	18	–	–	1.65	30.9
